Converted amounts (≈) assume the structure as drawn.
Assays:
S. aureus Mu50 GISA = experiment: Killing curve (CFU counting); format: cell-based, Staphylococcus aureus; conditions: Triafluocyl 20 μg/ml vs high dose of Minocycline; FIG. 8B
Description: S. aureus Mu50 GISA was grown overnight in brain heart infusion (BHI) medium, diluted 1:100 in fresh BHI, and incubated aerobically at 37° C. until bacteria growth reached a logarithmic phase (OD600=0.25-0.3).
[…] Bacterial growth was measured after different time intervals by counting the colony-forming units after plating appropriate culture dilutions on BHI agar plates.

S. aureus ATCC 6538 = experiment: MIC determination (EUCAST, Mueller-Hinton broth); format: cell-based; conditions: Staphylococcus aureus, ATCC6538
Description: (§1) Further experiments were conducted using different strains of S. aureus, as clinically relevant Gram-positive bacterial strains: ATCC 25904, ATCC 6538, methilcillin-resistant S. aureus (MRSA) ATCC BAA-1556, Glycopeptide intermediate-resistant (GISA) S. aureus Mu-50 (ATCC 700695) in order to determine the Minimal Inhibitory Concentration (MIC) which is the minimal concentration required to prevent bacterial growth; the Minimal Bactericidal Concentration (MBC) which determines the lowest concentration at which an antimicrobial agent kill a particular microorganism and a Minimum Duration for killing 99.9% bacteria (MDK99.9) which is a tolerance metric according to the EUCAST.
MIC determination: A single colony selected from the different strains of S. aureus is resuspended and cultured in the appropriate medium overnight (O/N) in aerobic conditions (37° C. with 220 rpm shaking), next day a 1:100 inoculum in Mueller-Hinton broth (MHB) was incubated in aerobic conditions for 3 hr (OD=0.08-0.1) and an inoculum of 1:300 dilution, corresponding to 3×10^5 CFU/ml, was incubated in presence or absence of different concentrations of Triafluocyl in 1% DMSO. After O/N growth the OD of each culture was measured at 600 nm in a spectrophotometer (OD600). […]

[1] = test system: S. agalactiae (ATCC 12386); experiment: MIC determination (EUCAST, Mueller-Hinton broth); format: cell-based; conditions: Streptococcus agalactiae, ATCC12386
Description: as §1, with “using” for “using different strains of”, “agalactiae (ATCC 12386),” for “aureus,”, “strains” for “strains: ATCC 25904, ATCC 6538, methilcillin-resistant S. aureus (MRSA) ATCC BAA-1556, Glycopeptide intermediate-resistant (GISA) S. aureus Mu-50 (ATCC 700695)”
(§2) MIC determination: A single colony selected from the different strains of S. agalactiae (ATCC 12386) is resuspended and cultured in the appropriate medium overnight (O/N) in aerobic conditions (37° C. with 220 rpm shaking), next day a 1:100 inoculum in Mueller-Hinton broth (MHB) was incubated in aerobic conditions for 3 hr (OD=0.08-0.1) and an inoculum of 1:300 dilution, corresponding to 3×10^5 CFU/ml, was incubated in presence or absence of different concentrations of Triafluocyl in 1% DMSO. After O/N growth the OD of each culture was measured at 600 nm in a spectrophotometer (OD600). The MIC represents the concentration at which there is no visible growth of bacteria, i.e. ΔOD at 600 nm equal to zero (blank is the medium alone). MIC for Triafluocyl against S. agalactiae (ATCC 12386) was 40 μg/ml.

[2] = test system: S. epidermidis mature biofilm; experiment: Mature biofilm (24-hour) treatment, viable count; format: cell-based, Staphylococcus epidermidis; conditions: 50 μg/ml
Description: In another experiment we let adhere 0.5×10^8 CFU/ml S. epidermidis cells for 4 hr and let the biofilm form for additional 24 hr in presence of 0.25% glucose, at this point we treated the biofilm with several concentrations of Triafluocyl for 24 hr in TSB with 0.25% glucose and determined the viable count (FIG. 7) as well as the percentage of live cells using the BacLight bacterial viability kit (Molecular Probes). For biofilm analysis, we first washed the biofilm to eliminate all planktonic bacteria and then the biofilm was detached mechanically using a scraper. To assure that the aggregates from the biofilm were completely dissociated, the suspension of cells was passed through a needle (0.5×16 mm) and a dilution was plated on TSA plates.

E. faecalis ATCC 29212 = experiment: MIC determination (EUCAST, Mueller-Hinton broth); format: cell-based; conditions: Enterococcus faecalis, ATCC29212
Description: as §1, with “E. faecalis,” for “S. aureus,”, “strains: E. faecalis vancomycin-resistant (VRE)” for “strains:”, “BAA-2365, and E. faecalis” for “25904,”, “29212” for “6538, methilcillin-resistant S. aureus (MRSA) ATCC BAA-1556, Glycopeptide intermediate-resistant (GISA) S. aureus Mu-50 (ATCC 700695)”
as §2, with “E. faecalis” for “S. agalactiae (ATCC 12386)”, “MIC for Triafluocyl against S. agalactiae (ATCC 12386) was 40 μg/ml.” left out

CCCSc1nc(N[C@@H]2C[C@H]2c2ccc(F)c(F)c2)c2nnn([C@@H]3C[C@H](OCCO)[C@@H](O)[C@H]3O)c2n1 [Triafluocyl, (1S,2S,3R,5S)-3-[7-[(1R,2S)-2-(3,4-difluorophenyl)cyclopropylamino]-5-(propylthio)-3H-[1,2,3]-triazolo[4,5-d]pyrimidin-3-yl]-5-(2-hydroxyethoxy)-1,2-cyclopentanediol]
antibacterial effect on S. aureus GISA compared with Minocycline (S. aureus Mu50 GISA): quicker and more efficient antibacterial effect
MIC (S. aureus ATCC 6538): 20 µg/mL (≈ 38.3 µM)
MIC [1]: 40 µg/mL (≈ 76.5 µM)
number of viable cells in the biofilm ([2]; 24 hr treatment of 24-hour biofilm, 0.25% glucose): 1.5×10^5 CFU/ml
reduction of viable cells in the biofilm ([2]; 24 hr treatment, versus control): ~3 log
MIC (E. faecalis ATCC 29212): 40 µg/mL (≈ 76.5 µM)

— patent US10905691B2, “Use of triazolo(4,5-d)pyrimidine derivatives for prevention and treatment of bacterial infection” (Universite de Liege, priority 2016, dated 2021)
